Results from paper PMC11508620, “Assessing the Potential of 1,2,3-Triazole-Dihydropyrimidinone Hybrids Against Cholinesterases: In Silico, In Vitro, and In Vivo Studies” (International Journal of Molecular Sciences, 2024).
Like-named read-outs stand apart in the source and are kept apart here.

Tests used:
AChE = conditions: cited from earlier work
[1] = molecular target: T1, electrophorus electricus AChE (eeAChE) (Electrophorus electricus, UniProt O42275); experiment: biochemical; conditions: [S] = 121 µM; 0.1 M phosphate buffer pH 8.0, 25 °C; mean ± SD
T1 construct: purified enzymes of animal origin, namely electrophorus electricus AChE (eeAChE) and equine serum BuChE (eqBuChE); purchased Sigma–Aldrich; host or cells: electric eel (animal origin)
T1 sequence (O42275 24-633): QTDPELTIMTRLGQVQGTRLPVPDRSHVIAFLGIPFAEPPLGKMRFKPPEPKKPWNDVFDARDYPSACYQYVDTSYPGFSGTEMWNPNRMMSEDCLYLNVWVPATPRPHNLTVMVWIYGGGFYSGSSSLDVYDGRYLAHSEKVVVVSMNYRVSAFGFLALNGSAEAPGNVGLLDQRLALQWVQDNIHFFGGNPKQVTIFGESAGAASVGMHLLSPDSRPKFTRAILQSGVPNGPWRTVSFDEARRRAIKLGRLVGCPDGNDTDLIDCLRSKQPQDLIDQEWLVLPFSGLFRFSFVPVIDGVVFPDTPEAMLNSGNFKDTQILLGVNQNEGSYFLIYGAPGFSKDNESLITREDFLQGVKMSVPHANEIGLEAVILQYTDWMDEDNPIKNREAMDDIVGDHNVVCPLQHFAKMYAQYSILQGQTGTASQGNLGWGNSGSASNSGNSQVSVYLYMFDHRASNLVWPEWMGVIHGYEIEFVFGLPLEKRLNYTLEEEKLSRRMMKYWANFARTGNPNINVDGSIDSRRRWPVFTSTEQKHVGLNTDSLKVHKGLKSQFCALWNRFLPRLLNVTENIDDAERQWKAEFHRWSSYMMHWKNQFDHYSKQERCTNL
Description: In order to evaluate the inhibitory activity against cholinesterase enzymes (AChE and BuChE), well-established in vitro models were used—purified enzymes of animal origin, namely electrophorus electricus AChE (eeAChE) and equine serum BuChE (eqBuChE). Hybrids A1–3 and B1–5 (Figure 3) were evaluated in vitro for cholinesterase inhibition using Ellman’s colorimetric method. […] The values are expressed as the mean ± standard deviation (SD).
The enzymatic activity of electrophorus electricus AChE (eeAChE) and equine serum BuChE (eqBuCHE) was assessed using the Ellman colorimetric assay, with minor modifications. […] Enzyme kinetics were monitored using UV-Vis spectroscopy using 0.875 mM 5,5′-dithiobis(2-nitrobenzoic acid) (DTNB) (Ellman’s reagent) as a chromogenic agent.
For this purpose, GraphPad Prism 8.02 software was used to plot %I vs. [I] (5 different concentrations) via a non-linear regression.

[2] = molecular target: equine serum BuChE (eqBuChE) (Equus caballus, UniProt P81908); experiment: biochemical; assay type: biochemical; conditions: for IC50: [S] = 112 µM, 0.1 M phosphate buffer pH 8.0, 25 °C, mean ± SD; for Ki: eqBuChE
equine serum BuChE (eqBuChE), sequence (P81908 whole entry): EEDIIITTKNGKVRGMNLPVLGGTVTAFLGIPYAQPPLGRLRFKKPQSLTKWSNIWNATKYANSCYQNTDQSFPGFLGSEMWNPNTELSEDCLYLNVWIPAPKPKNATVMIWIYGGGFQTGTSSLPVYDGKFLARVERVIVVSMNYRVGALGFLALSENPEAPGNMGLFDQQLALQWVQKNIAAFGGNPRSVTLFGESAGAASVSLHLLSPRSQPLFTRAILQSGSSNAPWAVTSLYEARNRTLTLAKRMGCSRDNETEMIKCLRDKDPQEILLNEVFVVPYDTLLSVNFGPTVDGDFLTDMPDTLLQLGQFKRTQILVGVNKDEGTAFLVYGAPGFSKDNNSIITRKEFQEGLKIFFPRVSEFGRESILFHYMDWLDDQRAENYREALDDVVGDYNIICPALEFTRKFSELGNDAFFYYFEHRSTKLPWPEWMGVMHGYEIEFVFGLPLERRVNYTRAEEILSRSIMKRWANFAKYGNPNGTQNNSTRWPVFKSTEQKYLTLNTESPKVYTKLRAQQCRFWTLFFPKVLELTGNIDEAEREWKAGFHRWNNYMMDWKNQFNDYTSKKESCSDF

FRAP antioxidant assay = conditions: for Antioxidant capacity, FRAP method: 6–200 µM; for Trolox Equivalent Antioxidant Capacity (TEAC), FRAP method: at 200 μM, compared to Trolox
[3] = Artemia salina lethal toxicity assay; assay type: in vivo; conditions: in vivo
Description: (§1) Artemia salina was used for in vivo general toxicity assessment of the compounds A1–3 and B1–5.
(§2) The ARTOXKIT M protocol was used. The percentage of dyed nauplii of Artemia salina, grown in the presence of variable concentrations of the inhibitor compounds (A1–3 and B1–5) (0.01 to 100 µM).
(§3) Saline water with 1% DMSO was used as a blank.
(§4) In parallel, a K2Cr2O7 test was performed as quality control.

Artemia salina = Artemia salina lethal toxicity assay; assay type: in vivo; conditions: 24 h
Description: as §1, §2, §3, §4

eqBuChE [4] = conditions: cited from earlier work
eqBuChE [5] = molecular target: T2, eqBuChE (Equus caballus, UniProt P81908); experiment: STD-NMR study with eqBuChE; assay type: binding, equine; conditions: hybrid 2.5 mM, eqBuChE 2.5 μM
T2 construct: purified enzymes of animal origin, namely electrophorus electricus AChE (eeAChE) and equine serum BuChE (eqBuChE); purchased Sigma–Aldrich; host or cells: equine serum
T2 sequence (P81908 whole entry): as above
Description: STD-NMR is a very useful validation technique for docking studies, which we have used previously with success.
The NMR spectroscopy experiments were performed on a Bruker Avance III 400 MHz spectrometer equipped with a 5 mm broadband (PABBO BB/19F-1H/D Z-GRD) resonance probe head. The STD-NMR experiments were realized according to our established method. Basically, NMR and STD-NMR experiments were carried out with solvent suppression and a 10 ms spinlock filter after the 90◦ pulse to reduce residual signals from the protein. For selective saturation, cascades of Gaussian pulses with a length of 50 ms and 40–60 dB of attenuation were employed, with an interpulse delay of 1 ms. The on-resonance and off-resonance frequencies were set to 0 and 12,000 Hz, respectively. STD-NMR controls were performed using the ligand itself. Blank experiments were performed to guarantee the absence of direct saturation of the ligand proton signals. The relaxation delay was properly adjusted so that the experiment time length was kept constant at 6.5 s. Water suppression at 1880 Hz (4.7 ppm) was conducted. Specifically, the saturation time to obtain the STD buildup curves was recorded at 0.25, 0.5, 1, 2, 3, 4, and 5 s. A 5 μM eqBuChE solution was prepared in a D2O. Five mM stock solutions were prepared for hybrids A1 and B4. […]. The final concentrations of ligand and enzyme were […], respectively.

BuChE = conditions: cited from earlier work

Structure (SMILES) | IC50 [1] [µM] | IC50 [2] [µM] | Antioxidant capacity, FRAP method (FRAP antioxidant assay) | NOEC (No Observed Effect Concentration) (Artemia salina) [µM] | further results
COc1ccc(C2NC(=O)NC(CCc3ccc(O)cc3)=C2C(=O)CCc2ccc(O)cc2)cc1 (centres unmarked) [V] |  |  |  |  | IC50 (AChE): 1.34 µM
O=C1NC(Cn2cc(-c3ccc(Br)cc3)nn2)=C(n2cc(-c3ccccc3)nn2)C(c2ccccc2)N1 (centres unmarked) [Hybrid B2, 6-((4-(4-Bromophenyl)-1,2,3-triazol-1-yl)methyl)-4-phenyl-5-(4-phenyl-1,2,3-triazol-1-yl)-3,4-dihydropyrimidin-2-one] | > 100 | > 100 | null values | 1 | LC50 at 24 h [3]: > 200 µM; LOEC (Lowest Observed Effect Concentration) (Artemia salina): 100 µM
[K+].[K+].[O]=[Cr](=[O])([O-])[O][Cr](=[O])(=[O])[O-] [Hybrid K2Cr2O7, K2Cr2O7, reference compound] |  |  |  |  | LC50 (Artemia salina; reference test): 23.6 µg/mL; LOEC (Lowest Observed Effect Concentration) (Artemia salina; reference test): 18 mg/L; NOEC (No Observed Effect Concentration) (Artemia salina; reference test): 10 mg/L
CC1=C(n2cc(-c3ccccc3)nn2)C(c2ccc(OCc3ccccc3)cc2)NC(=O)N1 (centres unmarked) [Hybrid A3, 4-(4-(Benzyloxy)phenyl)-6-methyl-5-(4-phenyl-1,2,3-triazol-1-yl)-3,4-dihydropyrimidin-2-one] | > 100 | > 100 |  | 200 | 
CC1=C(n2cc(-c3ccccc3)nn2)C(c2ccc(Cl)cc2)NC(=O)N1 (centres unmarked) [Hybrid A2, 4-(4-Chlorophenyl)-6-methyl-5-(4-phenyl-1,2,3-triazol-1-yl)-3,4-dihydropyrimidin-2-one] | > 100 | 24 ± 1 |  | 200 | 
COc1cc(OC)c2c(=O)c(OCCCCn3cc(CN4C(=O)C(=O)c5ccccc54)nn3)c(-c3ccc(OC)c(OC)c3)oc2c1 [IV] |  |  |  |  | IC50 (eqBuChE [4]): 11.2 µM
CC1=C(n2cc(-c3ccccc3)nn2)C(c2ccccc2)NC(=O)N1 (centres unmarked) [Hybrid A1, 6-Methyl-4-phenyl-5-(4-phenyl-1,2,3-triazol-1-yl)-3,4-dihydropyrimidin-2-one] | > 100 | 12 ± 2 |  | 200 | STD-NMR attenuation, H3 (eqBuChE [5]; 3 s saturation, H9 set to 100%): 87%; STD-NMR attenuation, H7 (eqBuChE [5]; 3 s saturation, H9 set to 100%): 88%
O=C1NC(Cn2cc(-c3ccccc3)nn2)=C(n2cc(-c3ccccc3)nn2)C(c2ccc(OCc3ccccc3)cc2)N1 (centres unmarked) [Hybrid B5, 4-(4-(Benzyloxy)phenyl)-5-(4-phenyl-1,2,3-triazol-1-yl)-6-((4-phenyl-1,2,3-triazol-1-yl)methyl)-3,4-dihydropyrimidin-2-one] | > 100 | > 100 | some potential to reduce Fe(III) to Fe(II) | 200 | Trolox Equivalent Antioxidant Capacity (TEAC), FRAP method (FRAP antioxidant assay): 0.216
CC(C)[C@@H]1CC[C@@H](C)C[C@@H]1n1cc(CN2C(=O)C(=O)c3ccccc32)nn1 [III] |  |  |  |  | IC50 (eqBuChE [4]): 0.46 µM
O=C1NC(Cn2cc(-c3ccccc3)nn2)=C(n2cc(-c3ccccc3)nn2)C(c2ccccc2)N1 (centres unmarked) [Hybrid B1, 4-Phenyl-5-(4-phenyl-1,2,3-triazol-1-yl)-6-((4-phenyl-1,2,3-triazol-1-yl)methyl)-3,4-dihydropyrimidin-2-one] | > 100 | 53 ± 4 | null values | 200 | LC50 at 24 h [3]: > 200 µM
O=C1NC(Cn2cc(C3CC3)nn2)=C(n2cc(-c3ccccc3)nn2)C(c2ccccc2)N1 (centres unmarked) [Hybrid B3, 6-((4-Cyclopropyl-1H-1,2,3-triazol-1-yl)methyl)-4-phenyl-5-(4-phenyl-1,2,3-triazol-1-yl)-3,4-dihydropyrimidin-2-one] | > 100 | 58 ± 3 | some potential to reduce Fe(III) to Fe(II) | 200 | Trolox Equivalent Antioxidant Capacity (TEAC), FRAP method (FRAP antioxidant assay): 0.257
O=C1NC(Cn2cc(CN3C(=O)C(=O)c4ccccc43)nn2)=C(n2cc(-c3ccccc3)nn2)C(c2ccccc2)N1 (centres unmarked) [Hybrid B4, 1-((1-((2-Oxo-6-phenyl-5-(4-phenyl-1,2,3-triazol-1-yl)-1,2,3,6-tetrahydropyrimidin-4-yl)methyl)-1,2,3-triazol-4-yl)methyl)indoline-2,3-dione] | > 100 | 1 ± 0.1 | null values | 200 | Ki ([2]; inhibition constant for binding to the enzyme-substrate complex, read-out: Kib (converted)): 1.4 µM; Ki ([2]; inhibition constant for binding to the free enzyme, read-out: Kia (converted)): 1.1 µM; Type of inhibition of eqBuChE ([2]; methods of Dixon and Cornish-Bowden): mixed mode of inhibition; STD-NMR attenuation, H11 and H13 of the CH2 groups (eqBuChE [5]; 4 s saturation, H16 set to 100%): 33%
CCOC(=O)C1=C(C[Se]C(=O)c2ccc(C)cc2)NC(=O)NC1c1ccccc1 (centres unmarked) [VI] |  |  |  |  | IC50 (AChE): 7.21 µM
CC(=O)c1ccc(OCc2cccc(C(F)(F)F)c2)cc1OCc1cn(CCc2c[nH]c3ccccc23)nn1 [I] |  |  |  |  | IC50 (BuChE): 0.00013 µM
O=c1ccc2ccc(OCCCCCn3cc(CNc4c5c(nc6ccccc46)CCCC5)nn3)cc2o1 [II] |  |  |  |  | IC50 (AChE): 0.095 µM; IC50 (BuChE): 0.006 µM
